The text below walks through data of PMC6272178, “Flavonoids from Sideritis Species: Human Monoamine Oxidase (hMAO) Inhibitory Activities, Molecular Docking Studies and Crystal Structure of Xanthomicrol” (Molecules, 2015).

SMILES strings stand for the structures. Read-outs that look alike come from different tables or passages of the source.

The target of assay [1] is T1, hMAO-A (Homo sapiens, UniProt P21397).
T1 construct: purchased Sigma-Aldrich (Munich, Germany); host or cells: baculovirus-infected BTI insect cells
T1 sequence (P21397 1-527): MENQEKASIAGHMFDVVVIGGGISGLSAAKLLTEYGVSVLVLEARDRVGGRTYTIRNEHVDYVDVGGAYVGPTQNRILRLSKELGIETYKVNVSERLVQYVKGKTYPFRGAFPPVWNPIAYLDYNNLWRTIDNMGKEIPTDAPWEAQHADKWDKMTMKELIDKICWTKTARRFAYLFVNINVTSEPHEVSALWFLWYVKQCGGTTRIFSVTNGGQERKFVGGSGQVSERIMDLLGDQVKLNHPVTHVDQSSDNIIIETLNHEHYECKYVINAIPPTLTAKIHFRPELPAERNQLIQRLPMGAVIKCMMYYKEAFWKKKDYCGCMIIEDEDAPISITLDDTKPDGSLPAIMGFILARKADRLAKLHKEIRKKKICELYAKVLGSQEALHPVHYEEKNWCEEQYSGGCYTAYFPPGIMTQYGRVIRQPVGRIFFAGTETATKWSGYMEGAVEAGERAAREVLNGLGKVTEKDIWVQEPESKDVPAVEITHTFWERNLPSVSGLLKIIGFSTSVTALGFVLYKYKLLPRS
The assay can be described thus: Reversibility of hMAO-A inhibition, centrifugation-ultrafiltration method. The format is biochemical. Particulars: for inhibition at 0.5 µM: compound 0.50 μM, mean ± SEM of three experiments; for Reversibility of hMAO-A inhibition: recovery of hMAO-A activity after repeated washing. As to the method:
Reversibility of the MAO inhibition with newly synthesized compounds was determined by centrifugation-ultrafiltration method previously described. Recombinant enzymes (hMAO-A or B) were incubated with a single concentration of the synthesized compounds or the reference inhibitors in a sodium phosphate buffer (0.05 M, pH 7.4) for one hour at 37 °C. An aliquot was stored at 4 °C and used for the measurement of MAO-A and -B activities. The remaining incubated sample was placed in an Ultrafree-0.5 centrifugal tube with a 30 kDa Biomax membrane and centrifuged at 9000× g for 20 min at 4 °C. The enzyme retained in the 30 kDa membrane was re-suspended in a sodium phosphate buffer at 4 °C and centrifuged two more times. After the third centrifugation, the enzyme retained in the membrane was re-suspended in sodium phosphate buffer ([…]) and an aliquot of this suspension was used for MAO-A and -B activity determination. Control experiments were performed simultaneously to determine the 100% MAO activity by replacing the compounds and standards with appropriate dilutions of the vehicles. The corresponding values of percent (%) MAO isoform inhibition was separately calculated for samples with and without repeated washing.

For assay [2], the target named is T2, hMAO-B (Homo sapiens, UniProt P27338).
T2 construct: purchased Sigma-Aldrich (Munich, Germany); host or cells: baculovirus-infected BTI insect cells
T2 sequence (P27338 1-520): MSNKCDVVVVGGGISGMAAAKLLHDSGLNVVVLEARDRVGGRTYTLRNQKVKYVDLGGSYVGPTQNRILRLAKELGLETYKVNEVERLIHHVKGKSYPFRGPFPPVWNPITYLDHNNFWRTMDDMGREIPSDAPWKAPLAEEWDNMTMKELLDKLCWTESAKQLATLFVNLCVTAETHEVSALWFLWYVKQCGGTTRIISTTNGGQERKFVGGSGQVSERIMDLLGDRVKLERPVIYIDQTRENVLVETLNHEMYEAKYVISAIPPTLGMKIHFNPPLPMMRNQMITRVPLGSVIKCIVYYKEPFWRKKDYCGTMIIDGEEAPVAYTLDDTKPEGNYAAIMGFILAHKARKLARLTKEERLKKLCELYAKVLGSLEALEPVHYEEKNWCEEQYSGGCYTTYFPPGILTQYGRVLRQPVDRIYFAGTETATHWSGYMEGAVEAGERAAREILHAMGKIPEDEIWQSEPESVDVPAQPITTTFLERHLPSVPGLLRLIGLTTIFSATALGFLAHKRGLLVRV
As to the kind of experiment: hMAO-B inhibition, fluorimetric Amplex Red assay with p-tyramine, kinetic Ki determination. The format is biochemical. The following applies: recombinant hMAO-B, p-tyramine substrate 0.05–0.5 mM, mean ± SEM of three experiments; read-out: Experimental Ki for MAO-B.

For assay [3], the target named is T1, hMAO-A. As to the kind of experiment: hMAO-A inhibition, fluorimetric Amplex Red assay with p-tyramine, kinetic Ki determination. It is filed as biochemical. The following applies: for Experimental SI: SI = Ki (MAO-A)/Ki (MAO-B); for Experimental SI / Selectivity: from experimental Ki values; for Selectivity: isoform preferentially inhibited; for Ki: recombinant hMAO-A, p-tyramine substrate 0.05–0.5 mM, mean ± SEM of three experiments, read-out: Experimental Ki for MAO-A; for Mode of hMAO-A inhibition: Lineweaver–Burk plots.

Assay [4] has as its system mouse brain MAO-A. Details: method as in PMID 24218136, PMID 25142815. Particulars: flavonoids from Cayratia japonica; cited from earlier work.
Setting [5] is: after repeated washing (three centrifugation-ultrafiltration steps), read-out: hMAO-A Inhibition (%) After Washing.
The mark [6] stands for this setting: incubated one hour at 37 °C, before washing, read-out: hMAO-A Inhibition (%) Before Washing.

With `CC(=O)OC[C@H]1O[C@@H](O[C@H]2[C@H](Oc3cc(O)c4c(=O)cc(-c5ccc(O)cc5)oc4c3O)O[C@H](CO)[C@@H](O)[C@@H]2O)[C@H](O)[C@H](O)[C@@H]1O` [Compound 2, isoscutellarein 7-O-[6'''-O-acetyl-β-D-allopyranosyl-(1→2)]-β-D-glucopyranoside], in assay [1] (setting [5]), the inhibition (in general, the percentage by which the read-out fell short of the control) at 0.5 µM turned out to be 10.9 ± 0.99%. Further, in assay [1] (setting [6]), the inhibition at 0.5 µM was 80.2 ± 5.66%. For the same molecule, the inhibition constant Ki (as a rule, a measure of affinity in units of concentration, obtained from inhibition or displacement) in assay [2] was 75600 µM. Also, in assay [3], the “Experimental SI” value turned out to be 0.015, the Selectivity result is “MAO-A” and the inhibition constant (Ki) stood at 1100 ± 99.2 µM.

Turning to `COc1c(OC)c(O)c2c(=O)cc(-c3ccc(O)cc3)oc2c1OC` [Compound 1, xanthomicrol], the inhibition at 0.5 µM in assay [1] (setting [5]) was found to be 9.23 ± 0.75%. The inhibition at 0.5 µM in assay [1] (setting [6]) was 86.5 ± 5.21%. In assay [1], the “Reversibility of hMAO-A inhibition” value is on record as “highly reversible inhibitors”. Besides, in assay [2], the Ki is 99.5 ± 7.44 µM. Also, in assay [3], the “Mode of hMAO-A inhibition” value was “competitive”, the “Experimental SI” value worked out at 0.007, the Selectivity result is listed as “MAO-A” and the Ki came to 0.76 ± 0.03 µM.

For the molecule `O=C(NCCN1CCOCC1)c1ccc(Cl)cc1` [Moclobemide, moclobemide, reference compound], the inhibition at 0.5 µM in assay [1] (setting [5]) is 7.89 ± 0.52%; in assay [1] (setting [6]), 91.2 ± 6.33%.

As for `O=c1cc(-c2ccc(O)cc2)oc2cc(O)cc(O)c12` [apigenin], in assay [4], the IC50 (commonly the concentration needed to halve the response being measured) was 1.17 µM.

With `COc1ccc(-c2cc(=O)c3c(O)c(OC)c(OC)cc3o2)cc1` [Compound 4, salvigenin], the inhibition at 0.5 µM in assay [1] (setting [5]) came out at 8.66 ± 0.65%. For the same molecule, in assay [1] (setting [6]), the inhibition at 0.5 µM was 89 ± 5.02%. For the same molecule, the “Reversibility of hMAO-A inhibition” value in assay [1] is “highly reversible inhibitors”. For the same molecule, in assay [2], the Ki came out at 6.27 ± 0.36 µM. For the same molecule, in assay [3], the “Mode of hMAO-A inhibition” value is on record as “competitive”, the “Experimental SI” value came to 0.086, the Selectivity entry is given as “MAO-A” and the Ki came to 0.54 ± 0.02 µM.

As for `CC(=O)OC[C@H]1O[C@@H](O[C@H]2[C@H](Oc3cc(O)c4c(=O)cc(-c5ccc(O)cc5)oc4c3O)O[C@H](COC(C)=O)[C@@H](O)[C@@H]2O)[C@H](O)[C@H](O)[C@@H]1O` [Compound 3, isoscutellarein 7-O-[6'''-O-acetyl-β-D-allopyranosyl-(1→2)]-6''-O-acetyl-β-D-glucopyranoside], the inhibition at 0.5 µM in assay [1] (setting [5]) was determined as 13.3 ± 1.09%; in assay [1] (setting [6]) it was 74.2 ± 4.89%. The Ki in assay [2] amounted to 80500 µM; in assay [3], 2800 ± 180 µM. In addition, the “Experimental SI” value in assay [3] came out at 0.034. In assay [3], the Selectivity entry was “MAO-A”.
